Results taken from US20180296630A1, “METHODS AND COMPOSITIONS FOR PREVENTING OR TREATING OPHTHALMIC CONDITIONS” (Stealth BioTherapeutics Corp, priority 2012, published 2018).

Columns and labels:
[1] = tested on: HTM cells; assay: Intracellular ROS production, acute H2O2 injury, FACS, HTM cells; format: cell-based, human; settings: n=4
From the text: The percentage of intracellular ROS production compared to GTM control in GTM H2O2, D-Arg-2′,6′-Dmt-Lys-Phe-NH2 10^−6M, D-Arg-2′,6′-Dmt-Lys-Phe-NH2 10^−7M, D-Arg-2′,6′-Dmt-Lys-Phe-NH2 10^−8M groups were 146.0±2.27%, 84.5±8.75%, 102.0±5.69%, 133.0±5.17% respectively (n=3); the HTM groups were 153.0±3.46%, 79±2.39%, 91.8±3.49%, 129.0±8.24% respectively (n=4). P<0.001 GTM and HTM H2O2 Group compared to control; *** means P<0.001 compared to GTM H2O2 group; ▴ ▴ ▴ Means P<0.001 compared to HTM H2O2 group; ▴ ▴ means P<0.01 compared to HTM H2O2 group.

[2] = tested on: GTM and HTM cells; assay: Oxidative stress induced by hydrogen peroxide in GTM and HTM cells (collective conclusion); format: cell-based, human
Description: The cells were divided into three groups: “Group A” cells were exposed to hydrogen peroxide prior to administration of D-Arg-2′,6′-Dmt-Lys-Phe-NH2. “Group B” cells were exposed to D-Arg-2′,6′-Dmt-Lys-Phe-NH2 prior to administration of hydrogen peroxide. “Group C” cells were administered D-Arg-2′,6′-Dmt-Lys-Phe-NH2 and hydrogen peroxide simultaneously.
The effects of D-Arg-2′,6′-Dmt-Lys-Phe-NH2 on sustained oxidative injury of GTM and HTM cells was examined. Cells were pre-treated with 10^−6, 10^−7, 10^−8M of D-Arg-2′,6′-Dmt-Lys-Phe-NH2 for 1 h, and then incubated with 200 μM H2O2 for 24 h to investigate the protective effect of D-Arg-2′,6′-Dmt-Lys-Phe-NH2 in sustained oxidative stress.

[3] = tested on: primary human retinal pigment epithelial (RPE) cells; assay: Viability of primary RPE cells incubated with peptide alone (MTT); format: cell-based; settings: different concentrations of peptide alone; 24 h
Description: Primary retinal pigment epithelial (RPE) cells were cultured to test the effects of the aromatic-cationic peptides of the invention in preventing or reducing oxidative damage in these cells. Methods useful for the study of primary retinal pigment epithelial cells have been described. See, Dunn et al., ARPE-19, A Human Retinal Pigment Epithelial Cell Line with Differentiated Properties, Experimental Eye Research, 1996, 62(2): 155-170. […] Primary cultured human RPE cells were incubated with different concentrations of D-Arg-2′,6′-Dmt-Lys-Phe-NH2 alone for a period of 24 h, and cell viability was determined by a MTT assay (FIG. 22).

[4] = tested on: cytochrome c release in HRECs; assay: Cytochrome c release from mitochondria of HRECs (confocal microscopy, Western blot); format: cell-based, human; settings: 30 mmol/L glucose; 24 h or 48 h
From the text: Glucose (30 mmol/L) induced cytochrome c release from the mitochondria of HRECs. Fixed HRECs were immunolabeled with a cytochrome c antibody and a mitochondrial specific protein antibody (HSP60).

Substance: D-Arg-2′,6′-Dmt-Lys-Phe-NH2
- percentage of intracellular ROS production compared to control ([1]; 10^−6M): 79±2.39%
- percentage of intracellular ROS production compared to control ([1]; 10^−7M): 91.8±3.49%
- percentage of intracellular ROS production compared to control ([1]; 10^−8M): 129.0±8.24%
- concentration at which sustained and acute oxidative stress induced by hydrogen peroxide can be prevented [2]: > 10^−9 M
- cell viability (MTT assay) [3]: did not adversely effect these cells
- translocation of cytochrome c between mitochondria and cytoplasm [4]: decrease
